Experimental findings from US10689362B2, “Quinoxaline compounds as type III receptor tyrosine kinase inhibitors” (Development Center for Biotechnology, priority 2016, dated 2020) are described below.

As usually defined, the IC50 is the point on the concentration scale where inhibition reaches its midpoint. A lower IC50 goes with greater potency in that assay. What is called inhibition is how much of the control response was suppressed.

One experiment has as its target FLT3 kinase (Homo sapiens (Human), UniProt P36888). Nature of the experiment: FLT3 kinase assay (radiometric). The format is biochemical. To be noted: bound. Put shortly: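 Recombinant FLT3 (5 ng) phosphorylating poly(Glu4:Tyr1) (2 μg) with 10 μM ATP plus [^33P]-ATP in MOPS pH 7.0 buffer, 4% DMSO final, 60 min at 30° C. Reaction stopped with phosphoric acid, filter-captured and scintillation-counted; IC50 derived from dose-response.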

The test system of experiment [1] is Kasumi-1 human acute myeloid leukemia cell with c-KIT N822K activating mutation. Nature of the experiment: Kasumi-1 cell proliferation assay (CellTiter-96). To be noted: Cytotoxicity, Kasumi-1 cells, 72 hours. The format is cell-based. In short, it runs like this: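 After 72 h of treatment with a compound dilution series, growth of c-KIT N822K-driven Kasumi-1 cells (64000 per well, plated the day before) was read as 490 nm absorbance. This followed a 4 h incubation with CellTiter96 AQueous One reagent.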

For experiment [2], the system named is THP-1 human acute monocytic leukemia cell harboring NRAS G12D mutation. Nature of the experiment: THP-1 cell proliferation assay (counter screen, CellTiter-96). It counts as cell-based. To be noted: Cytotoxicity, THP-1 cells (counter screen), 72 hours. In short, it runs like this: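 Growth inhibition read as 490 nm absorbance after 4 h with CellTiter96 AQueous One reagent, following 72 h compound exposure at rising concentrations. THP-1 (NRAS G12D) cells plated at 5000 per well and left overnight at 37 °C, 5% CO2 before dosing.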

The target of a further experiment is c-KIT kinase (Homo sapiens (Human), UniProt P10721). Kind of experiment: c-KIT kinase assay (radiometric). The format is biochemical. In short, it runs like this:
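Recombinant c-Kit (20 ng) with 2 μg Poly-(Glu4:Tyr1) in MOPS pH 7.0 buffer with MgCl2/MnCl2, 10 μM ATP plus [^33P]-ATP, 4% DMSO final, 60 min at 30° C. Stopped with phosphoric acid, filter-captured and scintillation counted; IC50 from curve fit.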

Another experiment concerns the target CSF-1R kinase (Homo sapiens (Human), UniProt P07333). Kind of experiment: CSF-1R kinase assay (AlphaScreen). It counts as biochemical. To be noted: class symbol. The method, then:
Inhibition of CSF-1R kinase activity by a test compound disclosed herein was estimated by AlphaScreen (PerkinElmer). […] Reactions were incubated at 30° C. for 45 min and stopped by adding 5 μL of 50 mM EDTA. Analysis of resulting product using an AlphaScreen kit, and counted with Enspire Alpha (PerkinElmer). […] The IC50 values of quinoxaline compounds of this invention against CSF-1R kinase were determined using the GraphPad Prism 5 software.
In general terms: Alpha assays give light when donor and acceptor beads are brought close together.

A further experiment concerns the target PDGFRβ kinase (Homo sapiens (Human), UniProt P09619). Kind of experiment: PDGFRβ kinase assay (radiometric). It counts as biochemical. Put shortly:
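Radiometric assay: recombinant PDGFRβ with poly(Glu4:Tyr1) in MOPS pH 7.0 buffer containing Mg2+/Mn2+, 10 μM ATP plus [33P]-ATP, and compound at 4% DMSO final. Incubated 60 min at 30° C, stopped with phosphoric acid, filter-captured and scintillation-counted. IC50 from curve fitting.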

In experiment [3] the test system is CSF-1-dependent M-NFS-60 mouse myeloid leukemia cell. Kind of experiment: M-NFS-60 cell proliferation assay (CellTiter-96). It counts as cell-based. To be noted: Cytotoxicity, M-NFS-60 cells, 72 hours. In short, it runs like this: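 Growth inhibition was measured as absorbance at 490 nm after 4 h with CellTiter 96 AQueous One reagent. Beforehand, M-NFS-60 cells (2000/well, CSF-1-dependent) were treated with a compound dilution series for 72 h following overnight plating at 37 °C, 5% CO2.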

The test system of experiment [4] is MV4-11 human acute myeloid leukemia cell with FLT3-ITD mutation. Nature of the experiment: MV4-11 cell proliferation assay (CellTiter-96). The format is cell-based. To be noted: Cytotoxicity, MV4-11 cells, 72 hours. Put shortly: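 Growth inhibition read as absorbance at 490 nm after 4 hours with CellTiter96 AQueous One reagent. Before that, FLT3-ITD-dependent MV4-11 cells (6500 cells/well, overnight at 37° C., 5% CO2) received a rising compound concentration series for 72 hours.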

The test system of experiment [5] is osteoclast precursors (osteoclast differentiation). Nature of the experiment: Osteoclast tartrate-resistant acid phosphatase assay. It counts as cell-based. To be noted: 168 h, at 1 μM treatment, 7 days, RANKL and M-CSF, read-out: inhibition activity against osteoclast differentiation. Put shortly: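 Differentiation inhibition was scored at 1 μM compound in duplicate, using supernatant TRAP activity read at 550 nm with an acid phosphatase kit.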

Sequence of c-KIT kinase (P10721 26-976): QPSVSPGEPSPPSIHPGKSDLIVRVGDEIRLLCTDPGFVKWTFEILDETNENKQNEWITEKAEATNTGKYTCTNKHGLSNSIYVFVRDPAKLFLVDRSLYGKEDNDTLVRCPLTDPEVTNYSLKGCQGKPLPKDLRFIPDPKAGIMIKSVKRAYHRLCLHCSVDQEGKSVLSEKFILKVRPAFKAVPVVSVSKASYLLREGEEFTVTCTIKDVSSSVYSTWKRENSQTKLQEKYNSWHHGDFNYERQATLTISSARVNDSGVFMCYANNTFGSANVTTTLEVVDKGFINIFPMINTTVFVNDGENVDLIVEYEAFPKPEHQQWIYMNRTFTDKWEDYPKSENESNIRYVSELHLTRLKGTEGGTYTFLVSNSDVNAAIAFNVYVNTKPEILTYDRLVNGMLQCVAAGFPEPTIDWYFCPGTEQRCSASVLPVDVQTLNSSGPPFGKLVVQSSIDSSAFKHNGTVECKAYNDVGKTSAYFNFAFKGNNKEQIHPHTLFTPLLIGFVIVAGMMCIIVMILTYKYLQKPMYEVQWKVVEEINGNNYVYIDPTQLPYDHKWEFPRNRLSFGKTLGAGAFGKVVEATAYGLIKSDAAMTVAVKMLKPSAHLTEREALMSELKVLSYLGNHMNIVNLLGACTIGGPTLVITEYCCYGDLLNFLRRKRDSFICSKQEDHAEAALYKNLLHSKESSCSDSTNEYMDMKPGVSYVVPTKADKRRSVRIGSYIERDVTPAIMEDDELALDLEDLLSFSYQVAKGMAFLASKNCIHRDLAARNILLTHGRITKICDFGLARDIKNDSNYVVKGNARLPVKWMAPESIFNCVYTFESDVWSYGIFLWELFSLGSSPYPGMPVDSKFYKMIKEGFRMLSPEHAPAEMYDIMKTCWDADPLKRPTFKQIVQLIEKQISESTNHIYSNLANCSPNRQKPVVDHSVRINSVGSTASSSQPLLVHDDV
Sequence of CSF-1R kinase (P07333 20-972): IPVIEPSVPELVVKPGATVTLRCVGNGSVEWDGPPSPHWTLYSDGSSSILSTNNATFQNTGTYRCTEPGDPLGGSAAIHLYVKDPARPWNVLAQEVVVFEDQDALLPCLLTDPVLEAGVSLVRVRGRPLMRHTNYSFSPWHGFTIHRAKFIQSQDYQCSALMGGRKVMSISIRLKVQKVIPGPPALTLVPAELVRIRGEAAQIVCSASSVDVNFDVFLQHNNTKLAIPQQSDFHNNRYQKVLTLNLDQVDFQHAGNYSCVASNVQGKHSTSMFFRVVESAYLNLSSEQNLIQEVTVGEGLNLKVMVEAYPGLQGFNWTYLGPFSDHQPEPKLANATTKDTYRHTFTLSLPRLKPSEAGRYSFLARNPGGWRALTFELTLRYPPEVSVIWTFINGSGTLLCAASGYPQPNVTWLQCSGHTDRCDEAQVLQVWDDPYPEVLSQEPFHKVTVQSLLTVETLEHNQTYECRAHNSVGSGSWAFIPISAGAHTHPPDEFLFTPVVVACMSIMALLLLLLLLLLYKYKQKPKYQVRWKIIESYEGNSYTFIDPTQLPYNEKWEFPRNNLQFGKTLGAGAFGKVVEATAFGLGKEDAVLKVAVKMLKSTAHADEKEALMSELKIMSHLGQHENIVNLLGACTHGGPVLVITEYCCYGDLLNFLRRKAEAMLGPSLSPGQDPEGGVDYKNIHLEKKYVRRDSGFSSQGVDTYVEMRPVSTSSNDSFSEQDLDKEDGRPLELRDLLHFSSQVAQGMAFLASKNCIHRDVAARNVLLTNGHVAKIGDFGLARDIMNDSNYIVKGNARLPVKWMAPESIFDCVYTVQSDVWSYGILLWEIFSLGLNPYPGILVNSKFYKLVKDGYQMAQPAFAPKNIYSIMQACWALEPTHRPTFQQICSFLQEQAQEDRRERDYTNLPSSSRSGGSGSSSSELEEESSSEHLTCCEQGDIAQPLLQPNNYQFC
Sequence of FLT3 kinase (P36888 27-993): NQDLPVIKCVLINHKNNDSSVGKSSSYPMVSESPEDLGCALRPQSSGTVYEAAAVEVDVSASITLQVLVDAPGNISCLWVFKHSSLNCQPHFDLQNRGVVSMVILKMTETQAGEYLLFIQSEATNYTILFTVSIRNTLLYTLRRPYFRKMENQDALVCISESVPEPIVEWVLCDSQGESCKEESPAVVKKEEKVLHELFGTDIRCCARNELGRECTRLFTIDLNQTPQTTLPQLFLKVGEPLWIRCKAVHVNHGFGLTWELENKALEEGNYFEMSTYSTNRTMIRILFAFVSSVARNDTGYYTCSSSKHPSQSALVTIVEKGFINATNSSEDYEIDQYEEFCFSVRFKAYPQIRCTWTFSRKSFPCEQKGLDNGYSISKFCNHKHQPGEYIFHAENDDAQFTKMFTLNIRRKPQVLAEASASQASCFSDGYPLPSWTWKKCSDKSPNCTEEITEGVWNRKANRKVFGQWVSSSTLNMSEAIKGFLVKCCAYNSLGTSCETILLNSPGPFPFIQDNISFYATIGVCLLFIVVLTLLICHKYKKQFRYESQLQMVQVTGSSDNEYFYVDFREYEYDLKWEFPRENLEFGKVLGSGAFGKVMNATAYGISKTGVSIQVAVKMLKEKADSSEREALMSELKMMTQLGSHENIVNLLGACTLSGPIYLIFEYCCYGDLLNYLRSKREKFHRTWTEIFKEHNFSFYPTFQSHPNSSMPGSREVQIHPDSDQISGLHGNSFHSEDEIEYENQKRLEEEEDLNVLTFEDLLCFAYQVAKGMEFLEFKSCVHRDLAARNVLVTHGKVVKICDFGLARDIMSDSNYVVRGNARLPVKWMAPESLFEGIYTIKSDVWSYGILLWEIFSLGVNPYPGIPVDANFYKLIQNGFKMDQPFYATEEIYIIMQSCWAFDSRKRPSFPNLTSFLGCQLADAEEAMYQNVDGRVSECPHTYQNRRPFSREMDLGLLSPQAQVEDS
Sequence of PDGFRβ kinase (P09619 33-1106): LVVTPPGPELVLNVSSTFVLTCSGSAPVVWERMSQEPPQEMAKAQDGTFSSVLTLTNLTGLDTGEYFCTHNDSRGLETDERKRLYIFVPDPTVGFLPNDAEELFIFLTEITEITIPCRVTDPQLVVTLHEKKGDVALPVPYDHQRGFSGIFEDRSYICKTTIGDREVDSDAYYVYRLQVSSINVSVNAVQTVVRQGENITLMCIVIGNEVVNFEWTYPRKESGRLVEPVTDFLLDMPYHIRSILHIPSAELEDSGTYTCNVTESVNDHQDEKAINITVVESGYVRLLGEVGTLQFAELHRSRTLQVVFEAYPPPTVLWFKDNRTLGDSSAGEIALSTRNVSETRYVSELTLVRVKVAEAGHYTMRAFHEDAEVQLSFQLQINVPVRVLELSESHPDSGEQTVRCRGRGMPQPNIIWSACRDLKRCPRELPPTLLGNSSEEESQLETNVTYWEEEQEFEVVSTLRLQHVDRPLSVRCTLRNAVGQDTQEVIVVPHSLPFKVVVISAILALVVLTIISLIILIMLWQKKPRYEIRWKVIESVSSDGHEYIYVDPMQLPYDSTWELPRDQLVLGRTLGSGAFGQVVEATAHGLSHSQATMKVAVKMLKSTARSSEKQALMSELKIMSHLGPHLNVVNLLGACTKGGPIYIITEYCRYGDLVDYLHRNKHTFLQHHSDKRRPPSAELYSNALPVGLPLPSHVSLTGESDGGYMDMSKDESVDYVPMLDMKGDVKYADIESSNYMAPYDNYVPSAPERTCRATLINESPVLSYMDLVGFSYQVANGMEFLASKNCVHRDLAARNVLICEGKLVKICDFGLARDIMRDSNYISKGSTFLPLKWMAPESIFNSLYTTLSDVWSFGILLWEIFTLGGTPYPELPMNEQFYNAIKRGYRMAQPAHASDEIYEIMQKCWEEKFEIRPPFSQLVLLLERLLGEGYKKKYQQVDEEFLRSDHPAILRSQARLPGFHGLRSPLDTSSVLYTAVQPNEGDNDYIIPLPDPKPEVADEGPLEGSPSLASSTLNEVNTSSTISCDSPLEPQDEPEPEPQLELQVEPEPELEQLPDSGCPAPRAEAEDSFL

Turning to `COc1ccc(COc2ccc(Nc3ccc4ncc(N5CCN(CCO)CC5)nc4c3C#N)cc2OC)cn1` [Example 75, 3-(4-(2-hydroxyethyl)piperazin-1-yl)-6-((3-methoxy-4-((6-methoxypyridin-3-yl)methoxy)phenyl)amino)quinoxaline-5-carbonitrile], the IC50 against FLT3 kinase is over 1000 nM; in experiment [1], 300 to 1000 nM; in [2] it was over 10000 nM; against c-KIT kinase (class symbol) it was 100 to 300 nM; against CSF-1R kinase, under 100 nM; against PDGFRβ kinase (bound), over 1000 nM. Besides, the results for the IC50 in experiment [3] and in experiment [4] were under 300 nM and over 10000 nM, respectively. In [5], the inhibition at 1 µM is over 50%.
For `COc1ccc(COc2ccc(Nc3ccc4ncc(N5CCOCC5)nc4c3C#N)cc2OC)nc1` [Example 132, 6-((3-methoxy-4-((5-methoxypyridin-2-yl)methoxy)phenyl)amino)-3-morpholinoquinoxaline-5-carbonitrile], the 50% inhibitory concentration (IC50) at FLT3 kinase is over 1000 nM; in experiment [1], over 10000 nM; in experiment [2], over 10000 nM; against c-KIT kinase (class symbol), 300 to 1000 nM; against CSF-1R kinase it was under 100 nM; on PDGFRβ kinase (bound), over 1000 nM. For the same molecule, the IC50 was 300 to 1000 nM in experiment [3] and over 10000 nM in experiment [4]. Moreover, in experiment [5], the inhibition at 1 µM was over 50%.
Regarding `COc1ccc(COc2ccc(Nc3ccc4ncc(N(C)C)nc4c3C#N)cc2OC)cn1` [Example 137, 3-(dimethylamino)-6-((3-methoxy-4-((6-methoxypyridin-3-yl)methoxy)phenyl)amino)quinoxaline-5-carbonitrile], the IC50 was over 1000 nM on FLT3 kinase; 300 to 1000 nM in experiment [1]; over 10000 nM in experiment [2]; under 100 nM against c-KIT kinase (class symbol); under 100 nM against CSF-1R kinase; over 1000 nM at PDGFRβ kinase (bound). Also, the IC50 in experiment [3] was under 300 nM; in experiment [4], 1000 to 10000 nM. In addition, in experiment [5], the inhibition at 1 µM is over 50%.
As for `C=C(C)c1cnc2ccc(Nc3ccc(OCc4ccc(OC)cc4)c(OC)c3)c(C#N)c2n1` [Example 108, 6-((3-methoxy-4-((4-methoxybenzyl)oxy)phenyl)amino)-3-(prop-1-en-2-yl)quinoxaline-5-carbonitrile], the IC50 is over 1000 nM against FLT3 kinase; over 10000 nM in [1]; over 10000 nM in experiment [2]; over 1000 nM at c-KIT kinase (bound); under 100 nM against CSF-1R kinase; over 1000 nM on PDGFRβ kinase (bound). The concentration for half-maximal inhibition (IC50) in experiment [3] is 1000 to 10000 nM; in [4], over 10000 nM. For the same molecule, the inhibition at 1 µM in experiment [5] is over 50%.
As to `CCCc1ccc(COc2ccc(Nc3ccc4ncc(N5CCOCC5)nc4c3C#N)cc2OC)cn1` [Example 98, 6-((3-methoxy-4-((6-propylpyridin-3-yl)methoxy)phenyl)amino)-3-morpholinoquinoxaline-5-carbonitrile], the IC50 against FLT3 kinase was over 1000 nM; in [1] it was under 300 nM; in experiment [2], over 10000 nM; at c-KIT kinase (class symbol) it was under 100 nM; against CSF-1R kinase it was under 100 nM; against PDGFRβ kinase (bound), over 1000 nM. Besides, the IC50 in [3] was under 300 nM; in experiment [4] it was 1000 to 10000 nM. For the same molecule, the inhibition at 1 µM in experiment [5] was over 50%.
With `COc1cc(Nc2ccc3ncc(N4CC(C)(OC)C4)nc3c2C#N)ccc1OCc1ccc(C)nc1` [Example 138, 3-(3-methoxy-3-methylazetidin-1-yl)-6-((3-methoxy-4-((6-methyl-pyridin-3-yl)methoxy)phenyl)amino)quinoxaline-5-carbonitrile], the IC50 at FLT3 kinase is over 1000 nM; in experiment [1], under 300 nM; in experiment [2], over 10000 nM; against c-KIT kinase (class symbol), under 100 nM; against CSF-1R kinase it was under 100 nM; on PDGFRβ kinase (bound), over 1000 nM. Also, the IC50 was under 300 nM in experiment [3] and 1000 to 10000 nM in experiment [4]. The inhibition at 1 µM in experiment [5] is over 50%.
Turning to `COc1ccc(COc2ccc(Nc3ccc4ncc(N5CCC(C)CC5)nc4c3C#N)cc2OC)cn1` [Example 69, 6-((3-methoxy-4-((6-methoxypyridin-3-yl)methoxy)phenyl)amino)-3-(4-methylpiperidin-1-yl)quinoxaline-5-carbonitrile], the IC50 at FLT3 kinase was over 1000 nM; in experiment [1], over 10000 nM; in [2] it was over 10000 nM; at c-KIT kinase (bound), over 1000 nM; on CSF-1R kinase, under 100 nM; against PDGFRβ kinase (bound), over 1000 nM. Further, the IC50 in [3] is 300 to 1000 nM; in experiment [4] it was over 10000 nM. In [5], the inhibition at 1 µM was over 50%.
In the case of `COc1ccc(COc2ncc(Nc3ccc4ncc(N5CCOCC5)nc4c3C#N)cc2OC)cc1` [Example 37, 6-((5-methoxy-6-((4-methoxybenzyl)oxy)pyridin-3-yl)amino)-3-morpholinoquinoxaline-5-carbonitrile], the IC50 was over 1000 nM on FLT3 kinase; over 10000 nM in [1]; over 10000 nM in experiment [2]; over 1000 nM against c-KIT kinase (bound); under 100 nM at CSF-1R kinase; over 1000 nM on PDGFRβ kinase (bound). In addition, the IC50 in [3] was under 300 nM; in experiment [4], over 10000 nM. Besides, the inhibition at 1 µM in experiment [5] is over 50%.
As for `COc1cc(Nc2ccc3ncc(C4CCOCC4)nc3c2C#N)ccc1OCc1ccc(C)nc1` [Example 114, 6-((3-methoxy-4-((6-methylpyridin-3-yl)methoxy)phenyl)amino)-3-(tetrahydro-2H-pyran-4-yl)quinoxaline-5-carbonitrile], the IC50 against FLT3 kinase is over 1000 nM; in experiment [1] it was 1000 to 10000 nM; in experiment [2] it was over 10000 nM; against c-KIT kinase (class symbol), 300 to 1000 nM; at CSF-1R kinase it was under 100 nM; against PDGFRβ kinase (bound) it was over 1000 nM. Besides, the IC50 in experiment [3] and in experiment [4] was 1000 to 10000 nM each time. For the same molecule, in experiment [5], the inhibition at 1 µM was over 50%.
For the molecule `COc1ccc(COc2ccc(Nc3ccc4ncc(N5CCOCC5)nc4c3C#N)cc2F)cc1` [Example 56, 6-((3-fluoro-4-((4-methoxybenzyl)oxy)phenyl)amino)-3-morpholinoquinoxaline-5-carbonitrile], the IC50 against FLT3 kinase was over 1000 nM; in experiment [1], 1000 to 10000 nM; in experiment [2], over 10000 nM; at c-KIT kinase (class symbol) it was 100 to 300 nM; against CSF-1R kinase, under 100 nM; against PDGFRβ kinase (bound) it was over 1000 nM. Besides, the IC50 in experiment [3] and in experiment [4] was 300 to 1000 nM throughout. Besides, the inhibition at 1 µM in [5] is over 50%.
Consider `COc1ccc(COc2ccc(Nc3ccc4ncc(N5CCOCC5)nc4c3C#N)cc2OC)cc1OC` [Example 58, 6-((4-((3,4-dimethoxybenzyl)oxy)-3-methoxyphenyl)amino)-3-morpholinoquinoxaline-5-carbonitrile], for which the half-inhibitory concentration (IC50) on FLT3 kinase is over 1000 nM; in experiment [1], under 300 nM; in [2], over 10000 nM; on c-KIT kinase (class symbol) it was under 100 nM; against CSF-1R kinase it was under 100 nM; at PDGFRβ kinase (class symbol) it was 300 to 1000 nM. Besides, the IC50 was under 300 nM in [3] and over 10000 nM in experiment [4]. In addition, in experiment [5], the inhibition at 1 µM was over 50%.
As to `CCc1ccc(COc2ccc(Nc3ccc4ncc(N5CCOCC5)nc4c3C#N)cc2OC)cc1` [Example 33, 6-((4-((4-ethylbenzyl)oxy)-3-methoxyphenyl)amino)-3-morpholinoquinoxaline-5-carbonitrile], the IC50 against FLT3 kinase was over 1000 nM; in experiment [1], under 300 nM; in experiment [2], over 10000 nM; on c-KIT kinase (class symbol), under 100 nM; against CSF-1R kinase, under 100 nM; on PDGFRβ kinase (class symbol), 100 to 300 nM. The IC50 was under 300 nM in [3] and 1000 to 10000 nM in experiment [4]. Besides, in experiment [5], the inhibition at 1 µM is over 50%.
